Laboratory results published in patent publication US12685791B2, “Free PSA antibodies as diagnostics, prognostics and therapeutics for prostate cancer” (Memorial Sloan Kettering Cancer Center, priority 2011, dated 2026).
Where “and” joins values, the source holds several entries; their conditions need not be identical. Identical values can stand only once.

Legend:
[1] = system: LNCaP-AR xenografts; assay: 89Zr-5A10 PET, region-of-interest analysis (SUVmean) of s.c. LNCaP-AR tumors (Table 16); format: in vivo, mice
[2] = system: fPSA and tPSA; assay: Intratumoral PSA ELISA, castrate male mice bearing LNCaP-AR xenografts, no treatment or testosterone pellet (Table 10); format: in vivo, human
Experimental: (§1) Mice were injected with ^89Zr-5A10, and at the indicated time point post injection, were sacrificed for PSA analysis. Tumor tissues were surgically excised. fPSA and total PSA (“tPSA”) were determined with PSA-directed ELISA, and the values were normalized to total protein concentration. fPSA concentrations are reported as average ng/ml(a), total PSA (“tPSA”) concentrations are reported as ng/mL (b), and total protein concentrations are reported as ng/mg (c). ELISAs were conducted as follows for PSA detection in serum and tumor tissues. fPSA and tPSA were measured with a dual-label immunofluorometric assay (DELFIA Prostatus™ PSA Free/Total PSA; Perkin-Elmer Life Sciences) according to manufacturer's recommendations. This assay measured fPSA and complexed PSA (cPSA) in an equimolar fashion^8, and the cross-reactivity of PSA-ACT for fPSA was <0.2%^9. […] For detection, the 1235 automatic immunoassay system from Perkin-Elmer Life Sciences was used. cPSA concentrations were calculated by subtracting fPSA from tPSA.
Table 10 provides intratumoral PSA concentrations in castrate male mice bearing LNCaP-AR xenografts, receiving either no manipulation, or a subcutaneous testosterone pellet. […] Twenty four hours post injection, mice were sacrificed for PSA analysis. Tumor tissues were surgically excised. fPSA and tPSA were determined with PSA-directed ELISA (as above), and in the case of intratumoral PSA, the values were normalized to total protein concentration. ^afPSA concentrations are reported as ng/ml, ^btotal PSA concentrations are reported as ng/mL, ^ctotal protein concentrations are reported as ng/mg. Abbreviations: fPSA, fPSA; tPSA, total PSA.

[3] = system: fPSA and tPSA; assay: Tumor PSA ELISA, castrate male mice bearing 22Rv1 tumors, no treatment or testosterone pellet (Table 12); format: in vivo, human; details: 22Rv1 tumor, individual mice with s.c. testosterone pellet, 7 d
Experimental: as §1
Twenty four hours post-injection, mice were sacrificed for PSA analysis. […]

[4] = system: bone remodeling (fractured tibia); assay: Bone fracture model, PET/SPECT of bone remodeling; format: in vivo, mice; details: PET or SPECT
Experimental: Osseous tumors were established in intact male mice via injection of LNCaP-AR in the tibia of the left hindlimb as follows. Prior to surgery, […] male SCID mice were anesthetized with ketamine, and an incision was be made in the left hind limb. The tibia was punctured using a bone drill, and 1×10^5 cells (22Rv1 or LNCaP-AR) injected into the marrow. The puncture was closed with bone wax, the incision sutured, and animals received a palliative dose of carprofen (5 mg/kg) once daily for three days post surgery. Tumor development was followed with bioluminescence imaging, and confirmed with MRI. The bone fracture model was prepared similar to the osseous tumor model, excluding injection of cells and application of bone wax.
In FIG. 14c, intact male mice received a fracture in the tibia, and ten days post surgery, bone remodeling was evaluated with ^18F—NaF. A clear region of contrast was identified in the fractured tibia by PET.

[5] = system: LNCaP-AR xenografts; assay: Ex vivo biodistribution of 89Zr-5A10, castrate male mice bearing LNCaP-AR xenografts treated with vehicle or MDV3100 (Table 13); format: in vivo
Experimental: All animal experiments were conducted in compliance with Institutional Animal Care and Use Committee (IACUC) guidelines and the Guide for the Care and Use of Laboratory Animals. Male CB-17 SCID mice (6-8 weeks old) were obtained from Taconic Farms Inc. (Hudson, NY), LNCaP-AR, 22Rv1, and PC3 tumors were inoculated in the right flank by sub-cutaneous (s.c.) injection of 1.0×10^6 cells in a 200 μL cell suspension of a 1:1 v/v mixture of media with reconstituted basement membrane (BD Matrigel™, Collaborative Biomedical Products Inc., Bedford, MA). Palpable tumors (50-250 mm^3) developed after a period of 3-7 weeks. Surgical castration and pellet implantation were performed according to known protocols under anesthesia with isoflurane. […]
Tissues were harvested at multiple time points post-injection (p.i.) to determine the kinetics of radiotracer biodistribution (FIG. 3a). […] Animals (n=4-5, per group) were euthanized by CO2 (g) asphyxiation at 1, 4, 12, 24, 48, 72, 96, and 120 h post-injection and 16 tissues (including the tumor) were removed, rinsed in water, dried in air for 5 min., weighed and counted on a gamma-counter for accumulation of ^89Zr-radioactivity. […] Count data were background- and decay-corrected and the tissue uptake measured in units of percentage injected dose per gram (% ID/g) for each sample was calculated by normalization to the total amount of activity injected. […]

[6] = system: fPSA and tPSA; assay: Tumor PSA ELISA, castrate male mice bearing LNCaP-AR tumors treated with vehicle or MDV3100 (Table 14); format: in vivo, human; details: for f/t PSA Ratio / fPSA / fPSA/tProtein: tumor, individual mice, listed as MDV
Experimental: as §1
As expected, each dose of MDV3100 inhibited AR signaling and fPSA synthesis (Table 14). Table 14 provides data regarding tumor analysis of PSA expression levels via ELISA in castrate male mice bearing LNCaP-AR tumors treated with antiandrogens. Castrate male mice bearing LNCaP-AR xenografts received a daily oral gavage of vehicle (VEH #), 10 mg/kg (MDV10 #), 40 mg/kg (MDV40 #), or 80 mg/kg (MDV80 #). Six days post manipulation, mice were injected with ^89Zr-5A10. Twenty four hours post injection, mice were sacrificed for PSA analysis. Tumor tissues were surgically excised. fPSA and tPSA were determined with PSA-directed ELISA (as above), and in the case of intratumoral PSA, the values were normalized to total protein concentration. ^afPSA concentrations are reported as ng/ml, ^btotal PSA concentrations are reported as ng/mL, ^ctotal protein concentrations are reported as ng/mg. Abbreviations: fPSA, fPSA; tPSA, total PSA.

[7] = tumor, individual mice with s.c. testosterone pellet, 7 d
[8] = 10 mg/kg daily oral gavage, 10 mg/kg
[9] = 40 mg/kg daily oral gavage, 40 mg/kg
[10] = 80 mg/kg daily oral gavage, 80 mg/kg

Q: How did the “tumor-associated 89Zr-5A10 by PET” value ([1]; s.c. testosterone pellets) turn out when `C[C@]12CC[C@H]3[C@@H](CCC4=CC(=O)CC[C@@]43C)[C@@H]1CC[C@@H]2O` [testosterone] was run?
A: Its value is “significant increase”.

Q: And the “intratumoral PSA levels” value ([2]; s.c. testosterone pellet vs no manipulation)?
A: Its value is “increased”.

Q: And the “f/t PSA Ratio” value [2, 7]?
A: Its value is 0.81 and 0.60 and 0.70 and 0.20.

Q: And the fPSA [2, 7]?
A: Its fPSA is 147.77 ng/mL and 424.31 ng/mL and 384.89 ng/mL and 566.42 ng/mL.

Q: And the fPSA/tProtein [2, 7]?
A: The fPSA/tProtein was 22.69 and 51.56 and 65.44 and 66.60.

Q: And the fPSA [3]?
A: The fPSA was 31.0 ng/mL and 26.8 ng/mL and 29.8 ng/mL and 32.9 ng/mL.

Q: What about the fPSA/tProtein [3] of the same molecule?
A: Its fPSA/tProtein is 3.60 and 2.84 and 3.44 and 4.19.

Q: For `O.O.O=P([O-])([O-])CP(=O)([O-])[O-].[99Tc+4]` [99mTc-MDP], which “localization to site of bone repair (fractured tibia)” value [4] is on record?
A: The value was “readily localized”.

Q: Which “tumor-associated 89Zr-5A10” value ([5]; 40 and 80 mg/kg dose vs vehicle) does the source give for `CNC(=O)c1ccc(N2C(=S)N(c3ccc(C#N)c(C(F)(F)F)c3)C(=O)C2(C)C)cc1F` [MDV3100] here?
A: Its value is “significantly decreased”.

Q: And the “effect on localization of 89Zr-5A10 to tumor” value ([5]; daily oral gavage 7 d, 10, 40 or 80 mg/kg)?
A: Its value is “inhibits”.

Q: What about the “tumor-associated 89Zr-5A10 by PET” value ([1]; 80 mg/kg daily oral gavage vs vehicle) of the same molecule?
A: Its value is “statistical changes”.

Q: And the “AR signaling and fPSA synthesis” value ([6]; each dose (10, 40, 80 mg/kg))?
A: The value was “inhibited”.

Q: And the “f/t PSA Ratio” value [6, 8]?
A: The value was 0.73 and 0.56 and 0.60 and 0.69.

Q: What about the fPSA [6, 8] of the same molecule?
A: The fPSA was 19.12 ng/mL and 48.98 ng/mL and 3.96 ng/mL and 474.40 ng/mL.

Q: And the fPSA/tProtein [6, 8]?
A: Its fPSA/tProtein is 3.29 and 7.07 and 0.88 and 51.57.

Q: And the “f/t PSA Ratio” value [6, 9]?
A: The value was 0.89 and 0.85 and 0.80.

Q: And the fPSA [6, 9]?
A: Its fPSA is 71.24 ng/mL and 43.25 ng/mL and 98.26 ng/mL.

Q: What about the fPSA/tProtein [6, 9] of the same molecule?
A: Its fPSA/tProtein is 11.61 and 6.14 and 15.13.

Q: What about the “f/t PSA Ratio” value [6, 10] of the same molecule?
A: The value was 0.57 and 0.69 and 0.59.

Q: What about the fPSA [6, 10] of the same molecule?
A: Its fPSA is 5.97 ng/mL and 77.83 ng/mL and 57.31 ng/mL.

Q: And the fPSA/tProtein [6, 10]?
A: The fPSA/tProtein was 1.18 and 10.34 and 9.99.

Q: With `[18F-].[Na+]` [18FNaF] as the molecule, how does the “localization to site of bone repair (fractured tibia)” value [4] read?
A: Its value is “readily localized”.
